The text below walks through data of patent publication EP3909578A1, “ANTIVIRAL COMPOSITION COMPRISING EEYARESTATIN I” (Universidad de Castilla la Mancha, priority 2020, dated 2021).

One series relates to Vero cells. Description: Cell viability of Vero cells after exposure to VCP/p97 inhibitors (CellTiter-Blue Cell Viability Assay). It is filed as cell-based, African green monkey. The text has this:
• Figure 1. Schematic representation of flavivirus life cycle and steps inhibited by eeyarestatin I. The antiviral effect observed during treatment with eeyarestatin I can be due to the inhibition of at least three different steps of the life cycle (indicated with a red star and highlighted in red letters). A, Inhibition of the valosin-containing protein / p97 ATPase (VCP/p97) and/or ERAD pathway indirectly affects virus replication on ER factories. B, Inhibition of VCP/p97 affects virus uncoating. C, Novel mechanism of action described in this invention: eeyarestatin I reduces virus particle infectivity before entering the cell (discovery patented here). • Figure 2. Cell viability after exposure to VCP/p97 inhibitors. Viability of Vero (African green monkey kidney fibroblasts) cells treated with VCP/p97 inhibitors xanthohumol (XAN) and eeyarestatin I (EEY) during 24 (A) or 48 hours (B). Cellular viability is represented as the percentage of metabolically active cells relative to mock-treated cells (CellTiter-Blue Cell Viability Assay, Promega). […] Virus titres measured by 50% tissue culture infectious dose (TCID50) in the supernatants of Zika virus-infected cells. […] At 24 hours post infection the cellular supernatants were collected (virus progeny) and the virus yields quantified by TCID50 (virus titration). […]

Series [1] relates to Zika virus. Description: Inhibition of Zika virus replication in infected Vero cell culture (MOI 1, virus yield by TCID50). It is filed as cell-based. The settings on record: for Zika virus replication during infections in cell culture: Vero cells, MOI of 1, drug added after 1 hour adsorption, 24 hours post infection. The text has this:
• Figure 1. Schematic representation of flavivirus life cycle and steps inhibited by eeyarestatin I. The antiviral effect observed during treatment with eeyarestatin I can be due to the inhibition of at least three different steps of the life cycle (indicated with a red star and highlighted in red letters). A, Inhibition of the valosin-containing protein / p97 ATPase (VCP/p97) and/or ERAD pathway indirectly affects virus replication on ER factories. B, Inhibition of VCP/p97 affects virus uncoating. C, Novel mechanism of action described in this invention: eeyarestatin I reduces virus particle infectivity before entering the cell (discovery patented here). • Figure 2. Cell viability after exposure to VCP/p97 inhibitors. Viability of Vero (African green monkey kidney fibroblasts) cells treated with VCP/p97 inhibitors xanthohumol (XAN) and eeyarestatin I (EEY) during 24 (A) or 48 hours (B). Cellular viability is represented as the percentage of metabolically active cells relative to mock-treated cells (CellTiter-Blue Cell Viability Assay, Promega). There are given the 50% cytotoxicity concentration (CC50) values for each drug and exposure time tested. • Figure 3. VCP/p97 drugs Xanthohumol and eeyarestatin I inhibit virus replication in cell culture (Vero cells). Virus titres measured by 50% tissue culture infectious dose (TCID50) in the supernatants of Zika virus-infected cells. A, Schematic representation of the assay. A monolayer of Vero cells was inoculated with Zika virus at a multiplicity of infection (MOI) of 1 TCID50 per cell (input). After 1 hour of incubation at 37°C, to allow virus adsorption, the supernatant was removed, the cells washed, and fresh media containing each drug at the concentrations indicated was added. At 24 hours post infection the cellular supernatants were collected (virus progeny) and the virus yields quantified by TCID50 (virus titration). B-C, Changes in virus titres and cell viability in cultures treated with increasing concentrations of eeyarestatin I (B) and xanthohumol (C) for 24 hours. […]

For the next series, the system named is Usutu virus. Description: Virucidal activity: cell-free incubation of virus sample with drug at 37°C, then TCID50 titration. The settings on record: for virucidal activity (loss of viral infectivity): incubation at 37°C in the absence of cells, 6 µM over time. The text has this: (§1) • Figure 1. Schematic representation of flavivirus life cycle and steps inhibited by eeyarestatin I. The antiviral effect observed during treatment with eeyarestatin I can be due to the inhibition of at least three different steps of the life cycle (indicated with a red star and highlighted in red letters). A, Inhibition of the valosin-containing protein / p97 ATPase (VCP/p97) and/or ERAD pathway indirectly affects virus replication on ER factories. B, Inhibition of VCP/p97 affects virus uncoating. C, Novel mechanism of action described in this invention: eeyarestatin I reduces virus particle infectivity before entering the cell (discovery patented here). • Figure 2. Cell viability after exposure to VCP/p97 inhibitors. Viability of Vero (African green monkey kidney fibroblasts) cells treated with VCP/p97 inhibitors xanthohumol (XAN) and eeyarestatin I (EEY) during 24 (A) or 48 hours (B). Cellular viability is represented as the percentage of metabolically active cells relative to mock-treated cells (CellTiter-Blue Cell Viability Assay, Promega). There are given the 50% cytotoxicity concentration (CC50) values for each drug and exposure time tested. • Figure 3. VCP/p97 drugs Xanthohumol and eeyarestatin I inhibit virus replication in cell culture (Vero cells). Virus titres measured by 50% tissue culture infectious dose (TCID50) in the supernatants of Zika virus-infected cells. A, Schematic representation of the assay. A monolayer of Vero cells was inoculated with Zika virus at a multiplicity of infection (MOI) of 1 TCID50 per cell (input). After 1 hour of incubation at 37°C, to allow virus adsorption, the supernatant was removed, the cells washed, and fresh media containing each drug at the concentrations indicated was added. At 24 hours post infection the cellular supernatants were collected (virus progeny) and the virus yields quantified by TCID50 (virus titration). B-C, Changes in virus titres and cell viability in cultures treated with increasing concentrations of eeyarestatin I (B) and xanthohumol (C) for 24 hours. The 50% inhibitory concentration (IC50) and the selectivity index (SI) values are provided for each drug. […] A, Schematic representation of the assay. The virus sample is directly incubated at 37°C in the presence of increasing concentrations of drugs. The treated sample is collected at different time points and directly titrated by TCID50. B-D Decrease in infectivity observed in a virus sample treated with amantadine (AMA), xanthohumol (XAN) or eeyarestatin I (EEY) and compared to a virus sample untreated (no drug) or mock-treated with vehicle (DMSO). B, Zika virus was incubated during 4 hours at 37°C in the presence of EEY (10 µM), XAN (10 µM), AMA (800 µM) or in the absence of drugs. C, Changes in the infectivity along time of a Zika virus sample incubated at 37°C in the presence of 6 µM EEY or XAN, or in the absence of drugs (No drug, DMSO). D, Changes in Usutu virus infectivity along time for a sample incubated at 37°C in the presence of 6 µM EEY or XAN, or in the absence of drugs (No drug, DMSO). • Figure 5. Eeyarestatin I exerts virucidal activity in a dose-dependent manner. […] Eeyarestatin I half maximum inhibitory concentration (IC50) is <1 µM for both Zika (A) and Usutu (B) viruses. • Figure 6. […] A, Schematic representation of the procedure to select adapted virus. In each virus passage, 100 µl of neat virus from the previous passage are inoculated to a monolayer of 10^5 Vero cells. After cell wash, the monolayer is incubated at 37°C and 5% CO2 in 1 ml of media (DMEM, 10% foetal bovine serum, 100 units penicillin-streptomycin) in the presence (EEY-adapted) or absence (untreated) of 5 µM eeyarestatin I. At 48 hours post-infection, the cellular supernatants are collected, titrated, and employed for the following virus passage. This process is repeated for a total of nine viral transfers. […]

For series [2], the system named is Zika virus. The description is as above. The settings on record: for virucidal activity (loss of viral infectivity): incubation at 37°C in the absence of cells, EEY 10 µM, XAN 10 µM, AMA 800 µM for 4 hours, or 6 µM over time.
Excerpt: as §1

Series [3] concerns Zika virus passaged during nine consecutive transfers (p9). Description: Virucidal activity on Zika virus populations after nine passages with or without 5 µM eeyarestatin I (resistance selection). The text has this: • Figure 1. Schematic representation of flavivirus life cycle and steps inhibited by eeyarestatin I. The antiviral effect observed during treatment with eeyarestatin I can be due to the inhibition of at least three different steps of the life cycle (indicated with a red star and highlighted in red letters). A, Inhibition of the valosin-containing protein / p97 ATPase (VCP/p97) and/or ERAD pathway indirectly affects virus replication on ER factories. B, Inhibition of VCP/p97 affects virus uncoating. C, Novel mechanism of action described in this invention: eeyarestatin I reduces virus particle infectivity before entering the cell (discovery patented here). • Figure 2. Cell viability after exposure to VCP/p97 inhibitors. Viability of Vero (African green monkey kidney fibroblasts) cells treated with VCP/p97 inhibitors xanthohumol (XAN) and eeyarestatin I (EEY) during 24 (A) or 48 hours (B). Cellular viability is represented as the percentage of metabolically active cells relative to mock-treated cells (CellTiter-Blue Cell Viability Assay, Promega). There are given the 50% cytotoxicity concentration (CC50) values for each drug and exposure time tested. • Figure 3. VCP/p97 drugs Xanthohumol and eeyarestatin I inhibit virus replication in cell culture (Vero cells). Virus titres measured by 50% tissue culture infectious dose (TCID50) in the supernatants of Zika virus-infected cells. A, Schematic representation of the assay. A monolayer of Vero cells was inoculated with Zika virus at a multiplicity of infection (MOI) of 1 TCID50 per cell (input). After 1 hour of incubation at 37°C, to allow virus adsorption, the supernatant was removed, the cells washed, and fresh media containing each drug at the concentrations indicated was added. At 24 hours post infection the cellular supernatants were collected (virus progeny) and the virus yields quantified by TCID50 (virus titration). B-C, Changes in virus titres and cell viability in cultures treated with increasing concentrations of eeyarestatin I (B) and xanthohumol (C) for 24 hours. The 50% inhibitory concentration (IC50) and the selectivity index (SI) values are provided for each drug. […] A, Schematic representation of the assay. The virus sample is directly incubated at 37°C in the presence of increasing concentrations of drugs. The treated sample is collected at different time points and directly titrated by TCID50. B-D Decrease in infectivity observed in a virus sample treated with amantadine (AMA), xanthohumol (XAN) or eeyarestatin I (EEY) and compared to a virus sample untreated (no drug) or mock-treated with vehicle (DMSO). B, Zika virus was incubated during 4 hours at 37°C in the presence of EEY (10 µM), XAN (10 µM), AMA (800 µM) or in the absence of drugs. […]

Where [4] appears, read: cell-free incubation at 37°C, listed as Eeyarestatin I, read-out: IC50 (virucidal activity).
[5] abbreviates: cell-free incubation at 37°C, read-out: IC50 (virucidal activity).

Like-named read-outs stand apart in the source and are kept apart here.

`CC1(C)C(N(O)C(=O)Nc2ccc(Cl)cc2)N(c2ccc(Cl)cc2)C(=O)N1CC(=O)N/N=C/C=C/c1ccc([N+](=O)[O-])o1` (centres unmarked) [eeyarestatin I]: in the series on Vero cells (5 µM eeyarestatin I), the “toxicity in cell culture” value is recorded as “very modest toxicity”. Moreover, in the series on Vero cells (time = 24 hours, read-out: 50% toxicity for Vero cells (CC50)), the CC50 came out at 24000 nM. Moreover, the “Zika virus replication during infections in cell culture” value in the series with Zika virus [1] is listed as “inhibit Zika virus replication”. Also, the IC50 was less than 1000 nM with Usutu virus (setting [4]); 150 nM with Usutu virus (setting [5]); 150 nM in the series with Usutu virus (time = 4 hours, read-out: estimated IC50); less than 1000 nM with Zika virus [2] (setting [4]); 590 nM with Zika virus [2] (setting [5]); less than 600 nM in the series with Zika virus [2] (time = 4 hours, read-out: estimated inhibitory constant). Further, the IC50 in series [3] (EEY-adapted Zika virus p9 (nine passages in 5 µM eeyarestatin I), 37°C for 4 hours) was found to be 130 nM; in series [3] (adapted Zika virus population (passaged 9 times in the presence of eeyarestatin I)), 130 nM; in series [3] (untreated Zika virus p9 (nine passages without drug), 37°C for 4 hours), 310 nM; in series [3] (untreated Zika virus population (nine passages in the absence of drugs)), 310 nM. Moreover, the entries for the “virucidal activity (loss of viral infectivity)” value in the series with Usutu virus and with Zika virus [2] were “inhibits Usutu virus infectivity” and “significant loss of infectivity”, respectively.

On to `COc1cc(O)c(CC=C(C)C)c(O)c1C(=O)/C=C/c1ccc(O)cc1` [xanthohumol, reference compound], for which the “Zika virus replication during infections in cell culture” value with Zika virus [1] is “inhibit Zika virus replication”. Also, in the series on Zika virus [1] (Zika virus replication in Vero cells), the “selectivity index (ratio of CC50 and IC50)” value is recorded as more than 5. Further, the “virucidal activity (loss of viral infectivity)” value in the series on Usutu virus was “no virucidal activity”; with Zika virus [2] it was “did not affect viral infectivity”.

For `NC12CC3CC(CC(C3)C1)C2` [amantadine, reference compound], in the series on Zika virus [2], the “virucidal activity (loss of viral infectivity)” value was “did not affect viral infectivity”.

Broadly, the CC50 is the concentration that lowers cell viability or growth by half.
